Measured values as given in patent US10167269B2, “Cockroach attraction-aggregation substance, cockroach aggregation attractant and cockroach controlling agent” (Kyoto University, priority 2013, dated 2019).

tested on: cockroaches; assay: biological test using the linear track olfactometer (attraction-aggregation activity); assay type: in vivo, American cockroaches; settings: Test Example 1; dose 10^2 pg; EPI=(NS-NC)/(NS+NC)
Source text: The method for determining the activity of the cockroach attraction-aggregation substance is not particularly limited herein, and the activity may be determined by, for example, a biological test using a linear track olfactometer (FIG. 1).
An olfactometer (linear track olfactometer) is typically an instrument used to conduct bioassays to observe the response of insects to volatiles. The instrument has a bifurcation at which air flow containing an attractant substance attracts the insect subjects (see, e.g., J. Jpn. For. Soc., 89(2), 2007, “An Olfactometer Testing the Olfactory Response of the Japanese Horntail Urocerus japonicus to Volatiles.”, 135-137, and Nogyo Kankyo Kenkyu Sosho, Vol. 17, “Nogyo Seitaikei no Hozen ni Muketa Seibutsu Kino no Katsuyo”, 108-134).
A biological test with a linear track olfactometer will be specifically described below. In FIG. 1, air suction from the top 1 of the central tube allows air to enter from the tops (2a and 2b) of the right and left tubes, thereby air flows are generated from the both sides, flowing through the horizontal tube toward the top of the central tube. The left tube is the control side, and the right tube is the sample side. Insect subjects (7 to 10 day-old larvae) are placed at the bottom 4 of the central tube. Air is then slowly suctioned from the top of the central tube with a pump (2.5 L/min). The insect subjects are allowed to freely move for 5 minutes at 25±1° C. at a relative humidity of 40 to 60% in total darkness. The numbers of the insect subjects that have moved to the control side and to the sample side are counted. The excess proportion index (EPI) is calculated by the following equation: EPI=(NS−NC)/(NS+NC) (where NS is the number of the insect subjects that have moved to the sample side; and NC is the number of the insect subjects that have moved to the control side).
An EPI closer to 1 indicates higher attraction-aggregation activity on cockroaches.
In the examples, the attraction-aggregation activity on cockroaches was determined by a biological test using the above-described linear track olfactometer (FIG. 1).

Compound	EPI value
CCC1Cc2cc(C)c(C)c(O)c2C(=O)O1 (stereo not drawn) [Example 5, 3,4-dihydro-8-hydroxy-3-ethyl-6,7-dimethyl-1H-2-benzopyran-1-one]	about 0.5

same assay, conditions: Test Example 1; even at a dose of 10^6 pg

Compound	attraction-aggregation activity on cockroaches
CCC1Cc2cc(C)c(C)c(OC)c2C(=O)O1 (stereo not drawn) [Comparative Example 1, reference compound]	no activity

same assay, conditions: Test Example 5; compounds isolated from frass in Example 24

Compound	attraction-aggregation activity on cockroaches
CCCC(C)C1Cc2c(C)cc(C)c(O)c2C(=O)O1 (stereo not drawn) [PLD-F, 3,4-dihydro-8-hydroxy-3-(1-methylbutyl)-5,7-dimethyl-1H-2-benzopyran-1-one]	high attraction-aggregation activity
CCC(C)C1Cc2c(C)cc(C)c(O)c2C(=O)O1 (stereo not drawn) [PLD-E, 3,4-dihydro-8-hydroxy-3-(1-methylpropyl)-5,7-dimethyl-1H-2-benzopyran-1-one]	high attraction-aggregation activity
Cc1ccc2c(c1O)C(=O)O[C@H](C)[C@H]2C (relative stereo) [PLD-A, (trans)-3,4-dihydro-8-hydroxy-3,4,7-trimethyl-1H-2-benzopyran-1-one]	high attraction-aggregation activity
CC[C@H]1OC(=O)c2c(ccc(C)c2O)[C@@H]1C (relative stereo) [PLD-C, (trans)-3,4-dihydro-8-hydroxy-4,7-dimethyl-3-ethyl-1H-2-benzopyran-1-one]	high attraction-aggregation activity
CC[C@@H]1OC(=O)c2c(ccc(C)c2O)[C@@H]1C (relative stereo) [PLD-D, (cis)-3,4-dihydro-8-hydroxy-4,7-dimethyl-3-ethyl-1H-2-benzopyran-1-one]	high attraction-aggregation activity
Cc1ccc2c(c1O)C(=O)O[C@@H](C)[C@H]2C (relative stereo) [PLD-B, (cis)-3,4-dihydro-8-hydroxy-3,4,7-trimethyl-1H-2-benzopyran-1-one]	high attraction-aggregation activity

same assay, conditions: Test Examples 1 and 4; doses ranging from 10^-3 pg to 10^6 pg; 7 to 10 day-old larvae, 5 minutes

Compound	attraction-aggregation activity on cockroaches
CC1Cc2cccc(O)c2C(=O)O1 (stereo not drawn) [Example 23, mellein]	high attraction-aggregation activity
Cc1ccc2c(c1O)C(=O)OC2 [Example 18, 7-hydroxy-6-methyl-1(3H)-isobenzofuranone]	showed attraction-aggregation activity
CCC1Cc2cc(C)c(C)c(O)c2C(=O)O1 (stereo not drawn) [Example 5, 3,4-dihydro-8-hydroxy-3-ethyl-6,7-dimethyl-1H-2-benzopyran-1-one]	high attraction-aggregation activity
Cc1ccc2c(c1O)C(=O)OC1CCCC21 (stereo not drawn) [Example 17, 2,3,3a,9b-tetrahydro-6-hydroxy-7-methyl-cyclopenta[c][2]benzopyran-5(1H)-one]	showed attraction-aggregation activity

same assay, conditions: Test Examples 2 and 3; doses ranging from 10^-3 pg to 10^3 pg

Compound	attraction-aggregation activity on cockroaches
CCC1Cc2ccc(C)c(O)c2C(=O)O1 (stereo not drawn) [Example 3, 3,4-dihydro-8-hydroxy-3-ethyl-7-methyl-1H-2-benzopyran-1-one]	high attraction-aggregation activity
Cc1ccc2c(c1O)C(=O)OC(C)C2 (stereo not drawn) [step 1-4 of Example 1, 3,4-dihydro-8-hydroxy-3,7-dimethyl-1H-2-benzopyran-1-one]	high attraction-aggregation activity
CCC1Cc2c(C)cc(C)c(O)c2C(=O)O1 (stereo not drawn) [Example 4, 3,4-dihydro-8-hydroxy-3-ethyl-5,7-dimethyl-1H-2-benzopyran-1-one]	high attraction-aggregation activity
